Series [1] relates to AS1411 (FRET-labeled) (DNA, G4) GGTGGTGGTGGTTGTGGTGGTGGTGG
Put plainly: FRET melting. The settings on record: K+ 140 mM; 10 mM lithium cacodylate pH 7.2; ligand 4 eq., DNA 0.2 µM.

Series [2] has as its system AS1411-N6 (FRET-labeled) (DNA, G4) GGTTGGGGTGGTGGTGGTTGTGGTGGTGGTGGCCAACC
Put plainly: FRET melting. Conditions: K+ 140 mM; 10 mM lithium cacodylate pH 7.2; ligand 4 eq., DNA 0.2 µM.

Series [3] deals with AS1411 (biotin-labeled) (DNA, G4) GGTGGTGGTGGTTGTGGTGGTGGTGG
Put plainly: SPR. The settings on record: K+ 140 mM; 10 mM phosphate, 25 °C; 1:1 affinity model.

Series [4] deals with AS1411 (DNA, G4) GGTGGTGGTGGTTGTGGTGGTGGTGG
Put plainly: CD spectra. The settings on record: K+ 140 mM; 10 mM lithium cacodylate; ellipticity increase.

The test system of series [5] is AS1411-N6 (DNA, G4) GGTTGGGGTGGTGGTGGTTGTGGTGGTGGTGGCCAACC
Put plainly: CD spectra. The settings on record: K+ 140 mM, 10 mM lithium cacodylate.

Series [6] deals with AS1411-N6 (biotin-labeled) (DNA, G4) GGTTGGGGTGGTGGTGGTTGTGGTGGTGGTGGCCAACC
Put plainly: SPR. The settings on record: K+ 140 mM; 10 mM phosphate, 25 °C; 1:1 affinity model.

The test system of series [7] is AS1411 (DNA, G4) GGTGGTGGTGGTTGTGGTGGTGGTGG
Put plainly: CD melting (260 nm). The settings on record: K+ 140 mM; 10 mM lithium cacodylate pH 7.2; ligand equivalents not given.

In series [8] the test system is AS1411-N6 (DNA, G4) GGTTGGGGTGGTGGTGGTTGTGGTGGTGGTGGCCAACC
Briefly: 1H NMR titration (imino region). The settings on record: 10 mM potassium phosphate pH 6.9, 10% D2O, 25 °C; duplex signals lost at 3 eq.

For series [9] the test system is unchanged. Briefly: CD melting (260 nm). Conditions: K+ 140 mM; 10 mM lithium cacodylate pH 7.2; ligand 4 eq., DNA 10 µM.
Series [10] addresses T1, nucleolin RBD1,2 (NCL RBD 1,2) (UniProt P19338 307-466). Briefly: fluorescence titration; no ligand; PAGE: 10 mM phosphate, 140 mM KCl, 20 uM DNA, 1:1(:1) ratio, 30 min; fluorescence titration buffer, pH and temperature not given in the material. Conditions: protein: recombinant; unlabelled in PAGE; stem-loop duplex plus G4; monomer major, dimer band also seen.
For series [11], the target named is T1, nucleolin RBD1,2 (NCL RBD 1,2). Put plainly: fluorescence titration; TMPyP4; PAGE: 10 mM phosphate, 140 mM KCl, 20 uM DNA, 1:1(:1) ratio, 30 min; fluorescence titration buffer, pH and temperature not given in the material. Conditions: protein: recombinant; unlabelled in PAGE; stem-loop duplex plus G4; monomer major, dimer band also seen.
The target is the same in series [12]. Briefly: fluorescence titration; 360A; PAGE: 10 mM phosphate, 140 mM KCl, 20 uM DNA, 1:1(:1) ratio, 30 min; fluorescence titration buffer, pH and temperature not given in the material. Conditions: protein: recombinant; unlabelled in PAGE; stem-loop duplex plus G4; monomer major, dimer band also seen.
For series [13] the target is unchanged. Put plainly: fluorescence titration; PhenDC3; PAGE: 10 mM phosphate, 140 mM KCl, 20 uM DNA, 1:1(:1) ratio, 30 min; fluorescence titration buffer, pH and temperature not given in the material. Conditions: protein: recombinant; unlabelled in PAGE; stem-loop duplex plus G4; monomer major, dimer band also seen.

Broadly, the ΔTm is the change in melting temperature against a reference sample. As a reminder, the KD is the concentration at which binding is half-saturated. One may read the Kd as a measure of binding affinity in units of concentration.

T1 sequence (P19338 307-466): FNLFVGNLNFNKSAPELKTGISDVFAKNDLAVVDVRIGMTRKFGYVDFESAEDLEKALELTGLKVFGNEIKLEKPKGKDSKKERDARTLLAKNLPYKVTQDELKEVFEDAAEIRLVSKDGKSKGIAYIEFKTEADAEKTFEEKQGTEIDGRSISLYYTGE

Take `NCCOc1cc(C(=O)Nc2cc(OCCN)c3ccccc3n2)nc(C(=O)Nc2cc(OCCN)c3ccccc3n2)c1`: the thermal shift (ΔTm) is -0.75 ± 1.02 °C in series [1] and 2.35 ± 0.44 °C in [2].
Consider `C[n+]1cc(NC(=O)c2ccc3ccc4ccc(C(=O)Nc5cc6ccccc6[n+](C)c5)nc4c3n2)cc2ccccc21`, for which the KD in series [3] was determined as 344 ± 53.8 nM; in series [6], 227 ± 54 nM. For the same molecule, the binding entry in [4] and in [5] (280 nm band lost at 3–4 eq.) was “yes” each time. Moreover, the values for the shift in melting temperature (ΔTm) in series [1] and in series [2] were 24.77 ± 2.56 °C and 22.89 ± 1.49 °C, respectively.
With `C[n+]1ccc(-c2c3nc(c(-c4cc[n+](C)cc4)c4ccc([nH]4)c(-c4cc[n+](C)cc4)c4nc(c(-c5cc[n+](C)cc5)c5ccc2[nH]5)C=C4)C=C3)cc1`, the values for the KD in series [3] and in series [6] were 115 ± 7.09 nM and 264 ± 30 nM, respectively. Moreover, the thermal shift (ΔTm) was 21.75 ± 1.08 °C in series [1], 28.94 ± 0.23 °C in [2] and ~ 25 °C in series [7]. Besides, the binding entry in [5] (ellipticity increase) is reported as “yes”.
Take `CN(C)c1ccc(Nc2c3ccc(NC(=O)CCN4CCCC4)cc3nc3cc(NC(=O)CCN4CCCC4)ccc23)cc1`: the ΔTm was found to be 8.99 ± 0.79 °C in series [1] and 3.73 ± 0.09 °C in series [2].
For the molecule `C[n+]1cc(NC(=O)c2cccc(C(=O)Nc3cc4ccccc4[n+](C)c3)n2)cc2ccccc21`, the binding entry in [8] and in series [4] was “yes” each time. In addition, the values for the KD in series [3] and in series [6] were 43.4 ± 8.47 nM and 38.2 ± 5.4 nM, respectively. In addition, the ΔTm in series [1] is 19.28 ± 0.99 °C; in series [2] it was 20.16 ± 0.41 °C; in [9] it was > 30 °C.
GGTTGGGGTGGTGGTGGTTGTGGTGGTGGTGGCCAACC (structured_DNA) [AS1411-N6]: the Kd amounted to 1000 ± 100 nM in series [10], 1100 ± 200 nM in series [11], 700 ± 100 nM in series [12] and 1500 ± 300 nM in [13].

These data come from PMC7916057.
